Consider nine compounds from PubChem BioAssay (NCI).

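Each compound was tested at five concentrations against cells in 96-well plates for 48 hours. Definition used: TGI = concentration required for complete inhibition of growth.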 Where a SMILES comes first, the peptide text is derived from it. The star is where a group is joined. Boc = CC(C)(C)OC(=O)*; nBu = CCCC*

Among the test systems are RPMI-8226 leukemia; HS 578T breast; SK-OV-3 ovarian; MDA-N; SF-268 CNS; K-562 leukemia; OVCAR-5 ovarian; OVCAR-4 ovarian; PC-3 prostate; MOLT-4 leukemia; ACHN renal; TK-10 renal; NCI-H226 lung; A498 renal.
Holding throughout (assay): DTP human tumour cell line panel, 48 h

As a reminder, the TGI is the concentration giving total growth inhibition. A higher TGI goes with lower sensitivity of the cells. On to `COC(=O)c1c(O)ccc2c1c1cc3ccccc3c(O)c1n2CCc1ccc(OC)c(OC)c1`, for which the TGI in the test on RPMI-8226 leukemia, in the test with HS 578T breast, with SK-OV-3 ovarian, in the test on MDA-N, in the test with SF-268 CNS and with K-562 leukemia was over 100 µM each time. Moreover, the TGI with OVCAR-5 ovarian, in the test with OVCAR-4 ovarian, with PC-3 prostate, in the test on MOLT-4 leukemia, in the test with ACHN renal and in the test with TK-10 renal was over 100 µM in each case. Also, the concentration for total growth inhibition (TGI) in the test on NCI-H226 lung and with A498 renal was over 100 µM throughout.

`CC(C)CC(N)C(=O)NC(C(=O)NC(CCCNC(=N)N)C(=O)NC(CS)C(=O)NC1CSCC(C(=O)NC(Cc2ccccc2)C(=O)NC(C(=O)NC(CCCNC(=N)N)C(=O)O)C(C)C)NC(=O)C2CCCN2C(=O)C(CCCCN)NC(=O)C2CCCN2C(=O)C2CCCN2C(=O)C(Cc2ccc(O)cc2)NC(=O)C(CO)NC(=O)C(CCCCN)NC(=O)C(C(C)O)NC(=O)C(Cc2c[nH]c3ccccc23)NC1=O)C(C)C` (stereo unspecified): the TGI with RPMI-8226 leukemia, in the test on HS 578T breast, with SK-OV-3 ovarian, in the test on MDA-N, in the test on SF-268 CNS and in the test on K-562 leukemia was over 25 µM throughout. In addition, the TGI with OVCAR-5 ovarian, in the test on OVCAR-4 ovarian, with PC-3 prostate, in the test with MOLT-4 leukemia, in the test with ACHN renal and with TK-10 renal was over 25 µM in each case. Further, the TGI in the test on NCI-H226 lung and with A498 renal was over 25 µM in each case.

On to `CCCCOc1ccc(CC(NC(=O)OC(C)(C)C)C(=O)NC(C)C(=O)NC(Cc2ccccc2)C(=O)NCC(N)=O)cc1` (stereo unspecified) (Boc-Y(nBu)AFG-NH2; configuration not given here), for which the total growth inhibition concentration (TGI) in the test on RPMI-8226 leukemia, in the test with HS 578T breast, with SK-OV-3 ovarian, with MDA-N, in the test with SF-268 CNS and in the test on K-562 leukemia was over 100 µM in each case. For the same compound, the TGI in the test on OVCAR-5 ovarian was over 100 µM; with OVCAR-4 ovarian, over 100 µM; in the test on PC-3 prostate it was over 100 µM; with MOLT-4 leukemia, 53.3 µM; in the test on ACHN renal, over 100 µM; in the test with TK-10 renal, over 100 µM. The TGI with NCI-H226 lung and with A498 renal was over 100 µM each time.

For `COC(=O)/C=C\C(C#N)(C#N)N=Cc1ccc(OC)cc1`, the TGI in the test on RPMI-8226 leukemia was 2.87 µM; in the test on HS 578T breast it was 33.7 µM; in the test on SK-OV-3 ovarian, 31 µM; in the test with MDA-N, 16.5 µM; with SF-268 CNS, 11.5 µM; with K-562 leukemia, over 58.6 µM. Also, the TGI worked out at 40.7 µM in the test on OVCAR-5 ovarian; 12.8 µM in the test on OVCAR-4 ovarian; 19.6 µM in the test with PC-3 prostate; 4.39 µM with MOLT-4 leukemia; 8.64 µM in the test with ACHN renal; 6.73 µM with TK-10 renal. The TGI turned out to be 25.3 µM in the test with NCI-H226 lung and 33 µM in the test on A498 renal.

Regarding `O=C(Cc1nc2ccccc2[nH]c1=O)c1c[nH]c2ccccc12`, the TGI with RPMI-8226 leukemia was over 100 µM; with HS 578T breast, over 100 µM; in the test with SK-OV-3 ovarian, 47.6 µM; in the test on MDA-N, over 100 µM; in the test with SF-268 CNS, over 100 µM; in the test on K-562 leukemia, over 100 µM. Also, the total growth inhibition concentration (TGI) with OVCAR-5 ovarian is 57.1 µM; in the test with OVCAR-4 ovarian, 72.2 µM; in the test with PC-3 prostate, 31.3 µM; in the test with MOLT-4 leukemia, over 100 µM; in the test on ACHN renal, 22.3 µM; in the test with TK-10 renal, 34.1 µM. Also, the TGI was found to be 31.3 µM with NCI-H226 lung and 51.9 µM in the test on A498 renal.

Consider `COC(=O)c1c(O)ccc2c1c1c(n2Cc2cc(OC)cc(OC)c2)C(=O)c2ccccc2C1=O`, for which the TGI with RPMI-8226 leukemia is 9.98 µM; in the test on HS 578T breast, 45.9 µM; with SK-OV-3 ovarian, 37.5 µM; in the test with MDA-N, 34.3 µM; with SF-268 CNS it was 41.2 µM; with K-562 leukemia, over 100 µM. Moreover, the TGI in the test on OVCAR-5 ovarian is 55.9 µM; in the test on OVCAR-4 ovarian, 50.7 µM; with PC-3 prostate, 19.3 µM; with MOLT-4 leukemia, 73.3 µM; in the test on ACHN renal, 56.1 µM; in the test with TK-10 renal it was 41.1 µM. The concentration for total growth inhibition (TGI) in the test with NCI-H226 lung was 39.3 µM; with A498 renal it was over 100 µM.

Turning to `CC(Oc1ccccc1Cl)C(=O)NN1C(=O)CC(=O)N(c2ccc(Cl)cc2)C1=S` (stereo unspecified), the total growth inhibition concentration (TGI) in the test on RPMI-8226 leukemia, in the test with HS 578T breast, in the test with SK-OV-3 ovarian, in the test with MDA-N, with SF-268 CNS and in the test with K-562 leukemia was over 100 µM throughout. The total growth inhibition concentration (TGI) in the test on OVCAR-5 ovarian was over 100 µM; in the test with OVCAR-4 ovarian, over 100 µM; with PC-3 prostate, over 100 µM; in the test on MOLT-4 leukemia, 95.8 µM; with ACHN renal, over 100 µM; with TK-10 renal it was over 100 µM. Further, the results for the TGI with NCI-H226 lung and with A498 renal were over 100 µM and 72.9 µM, respectively.

For the compound `Oc1ccccc1C=Nc1ccc(-c2nc3ccccc3s2)cc1`, the TGI in the test with RPMI-8226 leukemia, in the test with HS 578T breast, with SK-OV-3 ovarian, in the test with MDA-N, with SF-268 CNS and with K-562 leukemia was over 100 µM in each case. Besides, the total growth inhibition concentration (TGI) in the test with OVCAR-5 ovarian was over 100 µM; in the test on OVCAR-4 ovarian, over 100 µM; in the test on PC-3 prostate it was 56.8 µM; in the test with MOLT-4 leukemia it was over 100 µM; in the test on ACHN renal, 73 µM; in the test on TK-10 renal, 71.4 µM. Besides, the results for the concentration for total growth inhibition (TGI) in the test with NCI-H226 lung and with A498 renal were 99.1 µM and 52.4 µM, respectively.

Consider `CC1=NN(c2nc(N)nc(/C(C#N)=C\c3ccc(-c4ccc([N+](=O)[O-])cc4)o3)n2)C(C)(C)C1`, for which the TGI in the test with RPMI-8226 leukemia, in the test with HS 578T breast, with SK-OV-3 ovarian, in the test on MDA-N, in the test on SF-268 CNS and with K-562 leukemia was over 100 µM in each case. In addition, the TGI in the test with OVCAR-5 ovarian, with OVCAR-4 ovarian, in the test with PC-3 prostate, in the test with MOLT-4 leukemia, in the test with ACHN renal and in the test on TK-10 renal was over 100 µM throughout. The TGI with NCI-H226 lung and with A498 renal was over 100 µM throughout.
